Reference: patent US20060069132A1, “Azolecarboxamide herbicides” (priority 2004, published 2006)

Key:
rice = experiment: Test C flooded paddy test; format: in vivo, Oryza sativa
Summary of the method: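 Injury scored visually against controls on a 0 (no effect) to 100 (complete control) scale, 12 to 14 days after treatment in greenhouse. Flooded paddy plants treated at 2-leaf stage; postemergence plants at 1- to 4-leaf stage, 2 to 18 cm tall.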

barnyardgrass = experiment: Test A pre-/postemergence herbicide test; format: in vivo, Echinochloa crus-galli
Summary of the method: (§1)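 Visual injury scores on a 0–100 scale (100 = complete control) taken about ten days post-treatment in greenhouse against untreated controls; dash means no result. Treatments: preemergence soil spray and postemergence spray to runoff on one- to two-leaf plants 2 to 10 cm tall, surfactant-containing formulation.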

kochia = experiment: Test C pre-/postemergence herbicide test; format: in vivo, Kochia scoparia
Summary of the method: (§2)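 Visual ratings on a 0–100 scale (100 = complete control) made versus untreated controls after 12 to 14 greenhouse days. Test chemicals, formulated in surfactant-containing non-phytotoxic solvent, applied preemergence to planted seeds or postemergence to 1- to 4-leaf plants (2 to 18 cm).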

giant foxtail = experiment: Test A pre-/postemergence herbicide test; format: in vivo, Setaria faberi
Summary of the method: as §1

ducksalad = experiment: Test C flooded paddy test; format: in vivo, Heteranthera limosa
lambsquarters = experiment: Test C pre-/postemergence herbicide test; format: in vivo, Chenopodium album
Summary of the method: as §2

large crabgrass [1] = experiment: Test C pre-/postemergence herbicide test; format: in vivo, Digitaria sanguinalis; details: for Plant response rating, Crabgrass, Large: visual, 12 to 14 days
Summary of the method: as §2

large crabgrass [2] = experiment: Test A pre-/postemergence herbicide test; format: in vivo, Digitaria sanguinalis
Summary of the method: as §1

woolly cupgrass = experiment: Test C pre-/postemergence herbicide test; format: in vivo, Eriochloa villosa; details: for Plant response rating, Cupgrass, Woolly: visual, 12 to 14 days
Summary of the method: as §2

corn = experiment: Test C pre-/postemergence herbicide test; format: in vivo, Zea mays; details: for Plant response rating, Corn: visual, 12 to 14 days
Summary of the method: as §2

johnsongrass = experiment: Test C pre-/postemergence herbicide test; format: in vivo, Sorghum halepense
Summary of the method: as §2

velvetleaf = experiment: Test A pre-/postemergence herbicide test; format: in vivo, Abutilon theophrasti
Summary of the method: as §1

[3] = 62 g ai/ha, scale 0 to 100 (0 no effect, 100 complete control)
[4] = 125 g ai/ha, scale 0 to 100 (0 no effect, 100 complete control)
[5] = 250 g ai/ha, scale of 0 to 100, 0 is no effect, 100 is complete control
[6] = 500 g ai/ha, visual rating after 12 to 14 days, scale 0 to 100 (0 no effect, 100 complete control)
[7] = Postemergence, 250 g ai/ha, 0 to 100 scale, 0 no effect, 100 complete control
[8] = Postemergence, 1000 g ai/ha, 0 to 100 scale, 0 no effect, 100 complete control
[9] = Preemergence, 1000 g ai/ha, visual rating, 0 to 100 scale (0 no effect, 100 complete control)
[10] = preemergence, 250 g ai/ha, visual injury, 0 to 100 scale (0 no effect, 100 complete control)
[11] = 125 g ai/ha, scale 0 (no effect) to 100 (complete control), visual, 12 to 14 days, preemergence
[12] = Preemergence, 500 g ai/ha, scale 0 to 100, 0 no effect, 100 complete control
[13] = 125 g ai/ha, scale 0 (no effect) to 100 (complete control), preemergence
[14] = 250 g ai/ha, scale 0 to 100 (0 no effect, 100 complete control), preemergence

With CCn1nc(C(C)(C)C)cc1C(=O)Nc1cccc(S(=O)(=O)C(F)(F)F)c1 [Compound 134] the “Rice plant response rating” value (rice; [3]) was 35, the “Rice plant response rating” value (rice; [4]) was 45 and the “Rice plant response rating” value (rice; [5]) was 55. The “Plant response rating, Rice” value (rice; [6]) was 60, the “Barnyardgrass plant response rating” value (barnyardgrass; [7]) was 30 and the “Plant response rating, Barnyardgrass” value (barnyardgrass; [8]) was 70. The “Barnyardgrass plant response rating” value (barnyardgrass; [9]) was 45, the “Barnyardgrass plant response rating” value (barnyardgrass; [10]) was 25 and the “Plant response rating (0 = no effect, 100 = complete control), Kochia” value (kochia; 62 g ai/ha, preemergence) was 85. For the same compound, the “Plant response rating, Kochia” value (kochia; [11]) was 100, the “Kochia plant response rating” value (kochia; [12]) was 100 and the “Foxtail, Giant plant response rating” value (giant foxtail; [7]) was 15. The “Plant response rating, Foxtail, Giant” value (giant foxtail; [8]) was 35, the “Foxtail, Giant plant response rating” value (giant foxtail; [9]) was 45 and the “Foxtail, Giant plant response rating” value (giant foxtail; [10]) was 20. The “Ducksalad plant response rating” value (ducksalad; [3]) was 45, the “Ducksalad plant response rating” value (ducksalad; [4]) was 70 and the “Ducksalad plant response rating” value (ducksalad; [5]) was 90. For the same compound, the “Plant response rating, Ducksalad” value (ducksalad; [6]) was 90, the “Plant response rating (0 = no effect, 100 = complete control), Lambsquarters” value (lambsquarters; 62 g ai/ha, preemergence) was 100 and the “Plant response rating, Lambsquarters” value (lambsquarters; [11]) was 100. The “Lambsquarters plant response rating” value (lambsquarters; [12]) was 100, the “Plant response rating (0 = no effect, 100 = complete control), Crabgrass, Large” value (large crabgrass [1]; 62 g ai/ha, preemergence) was 65 and the “Plant response rating, Crabgrass, Large” value (large crabgrass [1]; [13]) was 95. The “Plant response rating, Crabgrass, Large” value (large crabgrass [1]; [14]) was 95, the “Crabgrass, Large plant response rating” value (large crabgrass [1]; [12]) was 100 and the “Crabgrass, Large plant response rating” value (large crabgrass [2]; [7]) was 20. The “Plant response rating, Crabgrass, Large” value (large crabgrass [2]; [8]) was 35, the “Crabgrass, Large plant response rating” value (large crabgrass [2]; [9]) was 95 and the “Crabgrass, Large plant response rating” value (large crabgrass [2]; [10]) was 35. The “Plant response rating (0 = no effect, 100 = complete control), Cupgrass, Woolly” value (woolly cupgrass; 62 g ai/ha, preemergence) was 0, the “Plant response rating, Cupgrass, Woolly” value (woolly cupgrass; [13]) was 0 and the “Plant response rating, Cupgrass, Woolly” value (woolly cupgrass; [14]) was 20. The “Cupgrass, Woolly plant response rating” value (woolly cupgrass; [12]) was 45, the “Plant response rating (0 = no effect, 100 = complete control), Corn” value (corn; 62 g ai/ha, preemergence) was 0 and the “Plant response rating, Corn” value (corn; [13]) was 0. The “Plant response rating, Corn” value (corn; [14]) was 0, the “Corn plant response rating” value (corn; [12]) was 60 and the “Plant response rating (0 = no effect, 100 = complete control), Johnsongrass” value (johnsongrass; 62 g ai/ha, preemergence) was 0. For the same compound, the “Plant response rating, Johnsongrass” value (johnsongrass; [11]) was 40, the “Johnsongrass plant response rating” value (johnsongrass; [12]) was 65 and the “Velvetleaf plant response rating” value (velvetleaf; [7]) was 20. The “Plant response rating, Velvetleaf” value (velvetleaf; [8]) was 20, the “Velvetleaf plant response rating” value (velvetleaf; [9]) was 40 and the “Velvetleaf plant response rating” value (velvetleaf; [10]) was 15.
